SMILES | melting point [°C]
CC(C)(C)c1noc(-c2ccccc2C(=O)O)n1 | 100 to 102
NS(=O)(=O)CCN1C(=O)c2ccccc2C1=O | 209 to 211
O=C(Cc1ccc(Br)cc1)Nc1ccc(C(=O)O)cc1 | 282 to 284
CCOC(=O)c1nc(NCc2ccccc2)sc1C | 98 to 100
Cc1ccc(-n2cc(C(=O)O)nn2)cc1 | 160 to 162
NC1CCC(c2nc(-c3ccccc3)n[nH]2)CC1 (stereo unspecified) | 163 to 165
CCOC(=O)c1ncon1 | 31 to 33
O=Cc1cnc(Cl)nc1 | 118 to 120
COc1cc(Br)c(S(=O)(=O)Cl)cc1OC | 92 to 94
Cc1sc2nc(-c3ccccn3)nc(Cl)c2c1-c1ccccc1 | 166 to 168
Clc1nnc(-c2cccs2)c2ccccc12 | 128 to 130
O=C(O)C1=Cc2cccc(O)c2OC1 | 233 to 235
O=C(O)CCn1cnc2ccccc2c1=O | 181 to 183
O=c1[nH]c(C(F)(F)F)cs1 | 91 to 93
COc1cccc(-c2noc(Cl)n2)c1 | 56 to 58
N#CCc1c[nH]c2cc(F)ccc12 | 52 to 54
Cc1ccc(NC(=O)CCl)c(Cl)c1 | 98 to 100
NCc1ccc(C(=O)NCC(N)=O)cc1 | 199 to 201
CCc1nc(N)[nH]c(=S)n1 | 239 to 241
CCc1[nH]ncc1C(=O)O | 229 to 231
O=C(O)c1c(F)ccc(S(=O)(=O)Cl)c1F | 107 to 111
Cc1cc(C)c(CN)c(=O)[nH]1 | 139 to 141
COc1ccc(-c2nnc(Cl)c3ccccc23)cc1 | 148 to 150
CC1(C(=O)O)CCc2ccccc2C1 (stereo unspecified) | 105 to 107
NS(=O)(=O)c1ccnc(Cl)c1 | 134 to 136
COc1ccc(-c2csc(CN)c2)cc1 | 124 to 126

SMILES | melting point [°C]
Cn1cc(C(=O)NCC2CCNCC2)cn1 | 175 to 177
COC(=O)c1cnc(-c2ccccc2)s1 | 107 to 109
CCc1cccc(Oc2ccc(F)cc2C=CC(=O)O)c1 | 106 to 108
Cc1cc(Cl)c(CCl)c(Cl)n1 | 45 to 47
NC(=O)c1ccc(Cl)nn1 | 239 to 241
CCNc1ccc(Br)cn1 | 67 to 69
Brc1ccc(NCc2ccsc2)cc1 | 44 to 46
O=C(O)Cc1csc(N2CCCC2=O)n1 | 118 to 120
Nc1ccn(CCN2CCNC2=O)n1 | 118 to 120
Cc1sc(NC(=O)CCl)nc1-c1ccc(Cl)cc1 | 176 to 178
CCOC(=O)Cc1ccc(C(C)=O)cc1 | 55 to 57
Cc1cc(=O)[nH]c(-c2ccc(N)cc2)n1 | 222 to 224
O=C(CCl)Nc1cc2c(cc1[N+](=O)[O-])OCO2 | 142 to 144
CCC(C)n1nc(C(=O)O)cc1C (stereo unspecified) | 103 to 105
Cc1cc(NC(C)C)ccc1C(N)=O | 132 to 134
Cc1[nH]c(C(=O)O)c(C)c1C(=O)O | 244 to 246
CC(C)c1cc(C(=O)O)nn1C | 87 to 89
O=C(O)CSc1ccc(Br)cc1 | 117 to 119
N#Cc1ccc(CN2CCNCC2)cc1 | 214 to 216
CC(CC(N)=NO)NC(=O)OC(C)(C)C (stereo unspecified) | 96 to 98
O=C(O)c1nn(-c2ccc(F)cc2)cc1O | 227 to 229
CC(=O)c1cccc(S(=O)(=O)NCCC(=O)O)c1 | 106 to 110
CC(C)NC(=O)c1ccccc1N | 148 to 150
O=C(O)C1CCN(C(=O)NC2CC2)CC1 | 123 to 125
O=C(CCl)NCc1ccc(C(=O)N2CCCC2)cc1 | 128 to 130

Reference: a melting point compilation (Tetko et al.)
